According to US7345091B2, “Carotenoid ether analogs or derivatives for the inhibition and amelioration of disease” (Cardax Pharmaceuticals, Inc., priority 2002, dated 2008):
“Also recorded” adds a separate entry of the source. Where a name gives a salt, the structure may show the parent alone.

Key:
C3H/10T1/2 cells = test: Assembly of Cx43 into plaques (immunofluorescent staining); format: cell-based, mouse; settings: 1×10^-5 M in 1:2 EtOH/H2O, 4 days
Method: In this experiment expression and assembly of Cx43 into plaques was assessed by immunofluorescent staining. Procedures were essentially as described in Zhang (1992). Briefly, confluent cultures of C3H/10T1/2 cells were grown on Permanox plastic 4-chamber slides (Nalge Nunc International, Naperville, Ill.) and treated for 4 days with: (1) the disodium salt disuccinate astaxanthin derivative XVI (statistical mixture of stereoisomers) dissolved in a 1:2 EtOH/H2O formulation; (2) the retinoid TTNPB at 1×10^−8 M in tetrahydrofuran as a positive control; or (3) 1:2 EtOH/H2O as a solvent control. Cells were fixed with −20° C. methanol overnight, washed in buffer, blocked in 1% bovine serum albumin (Sigma, St, Louis, Mo.) in PBS, and incubated with the rabbit polyclonal anti-Cx43 antibody (Zymed, San Francisco, Calif.) as in (2) above and detected with Alexa568 conjugated anti-rabbit secondary (Molecular Probes, Eugene, Oreg.). Slides were illuminated with […] light and images were acquired at a wavelength of 600 nm using the Zeiss Axioscope light microscope and a Roper Scientific cooled CCD camera. […] In cultures treated with solvent as control, such immunoreactive plaques were infrequent and were smaller than those detected in cells treated with the statistical mixture of stereoisomers of the disodium salt disuccinate astaxanthin derivative XVI or with TTNPB as positive control. […]

[1] = system: mouse embryonic fibroblast C3H/10T 1/2 cells; test: Gap junctional communication assay (Lucifer Yellow dye transfer); format: cell-based; settings: 1×10^-5 M in 1:2 EtOH/H2O, 4 days; for extent of junctional communication: vs solvent controls
Method: A series of experiments were performed to assess the ability of the disodium salt disuccinate astaxanthin derivatives XVI to induce gap junctional communication (GJC) in an immortalized line of murine fibroblasts. Studies were conducted: • (1) at the functional level to measure cell/cell communication by increased dye transfer between confluent cells in monolayer culture; • (2) at the molecular level as measured by the ability of these compounds to induce expression of connexin43 (Cx43) protein. Cx43 is the structural unit of the intercellular channels in these fibroblasts that allows GJC; • (3) at the cellular level as shown by the ability of the disodium salt disuccinate astaxanthin derivatives XVI to increase the number and size of Cx43 immunoreactive plaques in regions of the plasma membrane in direct contact with adjacent cells. (1) Communication Assays. Experiments were performed to assess the ability of the disodium salt disuccinate astaxanthin derivative XVI [as a statistical mixture of the all-trans (all-E) stereoisomers, 3S,3′S, meso, and 3R,3′R in 1:2:1 ratio] to enhance gap junctional intercellular communication (GJC) between mouse embryonic fibroblast C3H/10T 1/2 cells. This ability has been previously highly correlated with the ability of carotenoids to inhibit carcinogen-induced neoplastic transformation (Zhang, 1992). Moreover, Cx43-mediated junctional communication between cardiac myocytes is responsible for transfer of signals that maintain synchronous contractions and prevent cardiac arrhythmias (Peters, 1995). Junctional permeability was assayed by microinjection of the fluorescent dye Lucifer Yellow CH (Sigma, St. Louis, Mo.) into individual confluent cells essentially as described previously (Zhang, 1994). […] Successful injection of Lucifer Yellow was confirmed by brief illumination with UV light, which causes yellow fluorescence of Lucifer Yellow. […] The number of fluorescent cells adjacent to the injected cell was later determined by digital image analysis using an unbiased density threshold method and the SigmaScan software program (Jandel Scientific). […]

[2] = Liver accumulation of free astaxanthin after single oral dose; format: in vivo, male C57BL/6 mice
Method: Free astaxanthin concentration was also determined, at the same time points as for plasma samples, in liver. Livers were removed from each animal in the pharmacokinetic study after sacrifice, and snap frozen in liquid nitrogen. Liver tissue was prepared for HPLC analysis as described (Jewell, 1999). Therefore, simultaneous examination of liver accumulation of free astaxanthin was performed at the same time points as the plasma analyses. Up to 300 mg of liver from each animal was snap frozen in liquid nitrogen. Tissue homogenization and extraction were performed with a mixture of chloroform/methanol/water, according to the methods of Jewell (1999). Non-esterified, free astaxanthin accumulation in liver was then evaluated by HPLC as described above for plasma samples.

Oral clearance ([2]; Liver, free astaxanthin, single 500 mg/kg oral dose): 15.856 L/h | liver vs plasma levels of free astaxanthin at each sampling interval ([2]; single 500 mg/kg oral gavage in emulsion): equal or greater to that in plasma
SMILES: CC1=C(/C=C/C(C)=C/C=C/C(C)=C/C=C/C=C(C)/C=C/C=C(C)/C=C/C2=C(C)C(=O)C(OC(=O)CCC(=O)O)CC2(C)C)C(C)(C)CC(OC(=O)CCC(=O)O)C1=O (racemic) [XVI, Disodium Salt of the Disuccinic Acid Ester of Astaxanthin]
assembly of immunoreactive Cx43 into plaques (C3H/10T1/2 cells): increases assembly of Cx43; also recorded: exhibited assembly of immunoreactive Cx43 into plaques | microinjected treated cells functionally coupled by gap junctions ([1]; 15 of 22 cells, control 27%): 56% | extent of junctional communication [1]: effectively increased the extent of junctional communication | extent of junctional communication ([1]; listed as disodium salt disuccinate astaxanthin derivative): induces functional gap junctional communication
